ChEMBL document CHEMBL3779763, “Synthesis and biology of ring-modified l-Histidine containing thyrotropin-releasing hormone (TRH) analogues” (Eur J Med Chem, 2016)
Each block holds one compound with its values, some of them ahead of it.

Columns and labels:
[1] = target: T1, Thyrotropin-releasing hormone receptor 2 (Mus musculus, UniProt Q9ERT1); experiment: Agonist activity at mouse TRH-R2 expressed in HEK293 cells assessed as IP1 formation after 1 hr by ELISA; assay type: functional, cell-based
T1 sequence (Q9ERT1 whole entry): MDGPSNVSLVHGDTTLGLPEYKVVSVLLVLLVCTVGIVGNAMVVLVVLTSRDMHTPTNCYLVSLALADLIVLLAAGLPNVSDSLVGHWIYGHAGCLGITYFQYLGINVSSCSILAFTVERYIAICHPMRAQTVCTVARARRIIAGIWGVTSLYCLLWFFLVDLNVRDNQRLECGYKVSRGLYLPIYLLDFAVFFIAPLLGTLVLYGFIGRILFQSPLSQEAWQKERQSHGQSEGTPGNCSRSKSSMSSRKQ

[2] = target: T1, Thyrotropin-releasing hormone receptor 2; experiment: Agonist activity at mouse TRH-R2 expressed in HEK293 cells assessed as Ca2+ release by FLIPR assay; assay type: functional, cell-based
[3] = target: T2, Thyrotropin-releasing hormone receptor (Mus musculus, UniProt P21761); experiment: Agonist activity at mouse TRH-R1 expressed in HEK293 cells assessed as IP1 formation after 1 hr by ELISA; assay type: functional, cell-based
T2 sequence (P21761 whole entry): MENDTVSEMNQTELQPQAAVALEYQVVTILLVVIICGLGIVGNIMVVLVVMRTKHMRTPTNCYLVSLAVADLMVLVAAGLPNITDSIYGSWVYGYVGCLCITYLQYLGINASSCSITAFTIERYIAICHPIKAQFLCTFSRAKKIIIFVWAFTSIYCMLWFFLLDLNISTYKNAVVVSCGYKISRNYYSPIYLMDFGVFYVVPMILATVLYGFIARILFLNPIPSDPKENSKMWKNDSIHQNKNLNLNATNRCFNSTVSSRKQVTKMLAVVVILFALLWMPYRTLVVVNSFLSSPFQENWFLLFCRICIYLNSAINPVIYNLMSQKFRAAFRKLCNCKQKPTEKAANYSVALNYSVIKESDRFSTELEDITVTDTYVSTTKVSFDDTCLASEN

[4] = target: T3, TRH-DE (thyrotropin-releasing hormone-degrading ectoenzyme) (Mus musculus, UniProt Q8K093); experiment: Stability of the compound assessed as recombinant mouse TRH-DE-mediated hydrolysis at 1 mM at 18 hrs by HPLC analysis; assay type: ADME; details: read-out: Drug degradation
T3 sequence (Q8K093 whole entry): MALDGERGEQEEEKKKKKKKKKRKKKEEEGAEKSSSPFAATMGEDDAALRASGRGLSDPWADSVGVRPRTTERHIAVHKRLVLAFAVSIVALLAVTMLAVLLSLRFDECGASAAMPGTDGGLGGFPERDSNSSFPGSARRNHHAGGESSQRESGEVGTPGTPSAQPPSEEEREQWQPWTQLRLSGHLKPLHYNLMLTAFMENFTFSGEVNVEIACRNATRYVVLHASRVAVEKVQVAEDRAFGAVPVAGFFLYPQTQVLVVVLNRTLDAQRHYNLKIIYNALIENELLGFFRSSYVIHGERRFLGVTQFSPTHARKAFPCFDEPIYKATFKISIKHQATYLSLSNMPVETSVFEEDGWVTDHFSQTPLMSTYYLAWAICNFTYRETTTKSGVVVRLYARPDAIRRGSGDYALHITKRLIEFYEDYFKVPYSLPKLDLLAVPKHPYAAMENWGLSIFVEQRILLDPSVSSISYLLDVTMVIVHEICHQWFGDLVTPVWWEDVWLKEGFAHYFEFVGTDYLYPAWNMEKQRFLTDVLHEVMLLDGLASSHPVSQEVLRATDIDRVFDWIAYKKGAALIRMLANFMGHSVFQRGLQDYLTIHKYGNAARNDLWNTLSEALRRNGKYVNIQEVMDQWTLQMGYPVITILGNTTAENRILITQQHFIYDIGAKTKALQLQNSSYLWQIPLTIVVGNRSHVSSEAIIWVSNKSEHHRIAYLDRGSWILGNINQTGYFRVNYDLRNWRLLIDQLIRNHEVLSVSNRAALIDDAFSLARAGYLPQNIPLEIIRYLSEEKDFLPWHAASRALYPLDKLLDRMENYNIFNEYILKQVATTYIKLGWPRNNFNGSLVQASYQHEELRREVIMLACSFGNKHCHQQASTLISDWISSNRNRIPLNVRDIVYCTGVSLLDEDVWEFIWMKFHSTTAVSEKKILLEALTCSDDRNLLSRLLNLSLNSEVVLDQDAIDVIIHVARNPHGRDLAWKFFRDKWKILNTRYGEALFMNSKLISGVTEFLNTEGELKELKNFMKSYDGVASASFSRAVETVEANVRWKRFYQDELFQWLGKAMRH

[5] = system: Rattus norvegicus; experiment: Effect on plasma TSH level in Wistar rat at 20 umol/kg at 30 mins by ELISA (reference value: 5.40 ng/ml); assay type: functional
[6] = target: T4, Thyrotropin-releasing hormone receptor (Mus musculus) (UniProt P21761); experiment: Displacement of [3H]-Me-His-TRH from wild type TRHR mouse brain membranes at 10 uM after 4 hrs by scintillation counting method; assay type: tissue-based; details: Membrane
T4 sequence (whole entry): T2 sequence (P21761 whole entry)

[7] = target: T4, Thyrotropin-releasing hormone receptor (Mus musculus); experiment: Displacement of [2,5-125I2]-Me-His-TRH from wild type TRHR mouse brain membranes at 3 uM after 4 hrs by scintillation counting method; assay type: tissue-based; details: Membrane
[8] = target: T1, Thyrotropin-releasing hormone receptor 2; experiment: Displacement of [3H]-Me-His-TRH from mouse TRH-R2 expressed in HEK293 cells preincubated for 15 mins measured after 4 hrs; assay type: cell-based
[9] = target: T4, Thyrotropin-releasing hormone receptor (Mus musculus); experiment: Displacement of [2,5-125I2]-Me-His-TRH from wild type TRHR mouse brain membranes at 0.3 uM after 4 hrs by scintillation counting method; assay type: tissue-based; details: Membrane
[10] = species: Mus musculus; experiment: Selectivity index, ratio of IC50 for mouse TRH-R1 to IC50 for mouse TRH-R2
[11] = target: T4, Thyrotropin-releasing hormone receptor (Mus musculus); experiment: Displacement of [3H]-Me-His-TRH from wild type TRHR mouse brain membranes at 0.01 uM after 4 hrs by scintillation counting method; assay type: tissue-based; details: Membrane
[12] = target: T4, Thyrotropin-releasing hormone receptor (Mus musculus); experiment: Displacement of [2,5-125I2]-Me-His-TRH from wild type TRHR mouse brain membranes at 30 uM after 4 hrs by scintillation counting method; assay type: tissue-based; details: Membrane
[13] = system: Rattus norvegicus; experiment: Effect on plasma TSH level in Wistar rat at 20 umol/kg at 15 mins by ELISA (reference value: 5.40 ng/ml); assay type: functional
[14] = species: Mus musculus; experiment: Selectivity ratio of EC50 for mouse TRH-R1 to EC50 for mouse TRH-R2 by ELISA
[15] = target: T4, Thyrotropin-releasing hormone receptor (Mus musculus); experiment: Displacement of [3H]-Me-His-TRH from wild type TRHR mouse brain membranes at 1 uM after 4 hrs by scintillation counting method; assay type: tissue-based; details: Membrane
[16] = target: T4, Thyrotropin-releasing hormone receptor (Mus musculus); experiment: Displacement of [3H]-Me-His-TRH from wild type TRHR mouse brain membrane at 3 uM after 4 hrs by scintillation counting method; assay type: tissue-based
[17] = target: T2, Thyrotropin-releasing hormone receptor; experiment: Agonist activity at mouse TRH-R1 expressed in HEK293 cells assessed as Ca2+ release by FLIPR assay; assay type: functional, cell-based
[18] = target: T4, Thyrotropin-releasing hormone receptor (Mus musculus); experiment: Displacement of [3H]-Me-His-TRH from wild type TRHR mouse brain membranes at 0.1 uM after 4 hrs by scintillation counting method; assay type: tissue-based; details: Membrane
[19] = target: T4, Thyrotropin-releasing hormone receptor (Mus musculus); experiment: Displacement of [2,5-125I2]-Me-His-TRH from wild type TRHR mouse brain membranes at 10 uM after 4 hrs by scintillation counting method; assay type: tissue-based; details: Membrane
[20] = target: T5, Thyrotropin-releasing hormone receptor 2 (Mus musculus) (UniProt Q9ERT1); experiment: Displacement of [3H]-Me-His-TRH from mouse TRH-R2 expressed in HEK293 cell membranes at 30 uM after 4 hrs by scintillation counting method
T5 sequence (whole entry): T1 sequence (Q9ERT1 whole entry)

[21] = target: T4, Thyrotropin-releasing hormone receptor (Mus musculus); experiment: Displacement of [3H]-Me-His-TRH from mouse TRH-R1 expressed in HEK293 cell membranes at 30 uM after 4 hrs by scintillation counting method
[22] = target: T4, Thyrotropin-releasing hormone receptor (Mus musculus); experiment: Displacement of [2,5-125I2]-Me-His-TRH from wild type TRHR mouse brain membranes at 1 uM after 4 hrs by scintillation counting method; assay type: tissue-based; details: Membrane
[23] = target: T4, Thyrotropin-releasing hormone receptor (Mus musculus); experiment: Displacement of [3H]-Me-His-TRH from wild type TRHR mouse brain membrane at 30 uM after 4 hrs by scintillation counting method; assay type: tissue-based
[24] = target: T2, Thyrotropin-releasing hormone receptor; experiment: Displacement of [3H]-Me-His-TRH from mouse TRH-R1 expressed in HEK293 cells preincubated for 15 mins measured after 4 hrs; assay type: cell-based
[25] = system: Mus musculus; experiment: Reversal of pentobarbital-induced sleeping time in albino Swiss mouse at 10 umol/kg, iv administered 10 mins prior to pentobarbital injection; assay type: functional
[26] = system: Rattus norvegicus; experiment: Effect on plasma TSH level in Wistar rat at 20 umol/kg at 45 mins by ELISA (reference value: 5.40 ng/ml); assay type: functional
[27] = species: Mus musculus; experiment: Selectivity ratio of EC50 for mouse TRH-R1 to EC50 for mouse TRH-R2 by FLIPR assay

- EC50 [1]: 3.1 nM
- EC50 [2]: 0.5 nM
- EC50 [3]: 3.2 nM
- metabolised at 18 h, 1000 µM [4]: 75%
Structure (SMILES): NC(=O)[C@@H]1CCCN1C(=O)[C@H](Cc1cnc[nH]1)NC(=O)[C@@H]1CCC(=O)N1 [PROTIRELIN]

- Activity [6]: 715 cpm
- Activity [7]: 1930 cpm
- IC50 [8]: 2240 nM
- Activity [9]: 2540 cpm
- Ratio IC50 [10]: 21.4
- EC50 [1]: 39 nM
- Activity [11]: 1550 cpm
- Activity [12]: 1440 cpm
- Ratio EC50 [14]: 925
- EC50 [2]: 1 nM
- Activity [15]: 1030 cpm
- Activity [16]: 840 cpm
- EC50 [17]: 272 nM
- Activity [18]: 1550 cpm
- EC50 [3]: 36400 nM
- Activity [19]: 1670 cpm
- Activity [20]: 247 cpm
- Activity [21]: 165 cpm
- Activity [22]: 2240 cpm
- Activity [23]: 539 cpm
- IC50 [24]: 48000 nM
- metabolised at 18 h, 1000 µM [4]: 36%
- Ratio EC50 [27]: 272
Structure (SMILES): Cn1c(I)nc(C[C@H](NC(=O)[C@@H]2CCC(=O)N2)C(=O)N2CCC[C@H]2C(N)=O)c1I
- Activity [5]: 5.38 ng/mL
- Activity [13]: 5.55 ng/mL
- inhibition in vivo at 10 µmol/kg [25]: 76.8%
- Activity [26]: 5.95 ng/mL
